What is called mortality is the percentage killed.

One assay deals with Spodoptera littoralis. Nature of the assay: whole plant or invertebrate. The assay is classed as in vivo, Spodoptera littoralis (Egyptian cotton leafworm). The conditions noted are these: 168 h, initial test concentration of 0.1% w (1000 ppm), 7 days, read-out: mortality grade S.l. How it is done:
(§1) Insecticidal activity of compounds of general formula I was assessed against the following pests: […]
Spodoptera littoralis (Egyptian cotton leafworm)
The test methods employed for each species appear below. In each test, unless otherwise stated, solutions or suspensions of test compound were made up over a range of concentrations in water (initially 0.1% w) containing 10%w acetone and 0.025% w "TRITON X-100" (trade mark) surface active agent (the condensation product of ethylene oxide with an alkyl phenol). These solutions were sprayed at a rate equivalent to 340 liters per hectare (3.4×10^-5 m^3 /m^2) onto Petri dishes containing either test species per se or diet onto which test species were subsequently introduced, as indicated. In some assays leaf discs infested with test species were sprayed whilst other assays involved the spraying of plants which were infested subsequently with test species after the spray solution had dried. […]
Mortality assessments were made as indicated below, in terms of percentage mortality figures. In each test a LC50 (the dosage of active material required to kill half of the test species) for the compound was calculated from the mortality figures and compared with the corresponding LC50 for a standard insecticide, ethyl parathion, in the same test. The results are expressed as toxicity indices thus: [formula] […]
With `O=C(NC(=O)c1c(F)cccc1F)Nc1ccc2c(c1)COC(c1ccc(F)cc1F)S2` (centres unmarked) [Example 108], the mortality at 1000 µg/mL lay in the range of 70 to 100%.

On to `O=C(NC(=O)c1c(F)cccc1F)Nc1ccc2c(c1)COC(c1c(Cl)cccc1Cl)S2` (centres unmarked) [Example 113], for which the mortality at 1000 µg/mL lay in the range of 70 to 100%.

In a further assay the test system is Tetranychus urticae. Put plainly: Acaricidal activity (mite life cycle), Tetranychus urticae. The assay is classed as in vivo, Tetranychus urticae (glasshouse red spider mite). The conditions noted are these: larvae on leaf discs sprayed at 340 liters per hectare; emergence of adults after 7 days. The procedure:
Acaricidal activity of some compounds of formula I was assessed, employing adult female glasshouse red spider mites, Tetranychus urticae (T.u.), by the following procedure.
2 cm diameter leaf discs cut from the leaves of French bean plants were placed, underside uppermost, on 5.5 cm diameter filter papers, kept moist by a cotton wool wick dipped in water.
Each leaf disc was infested with 25 to 30 adult female mites which were removed after 6 hours, leaving bout 50 eggs on each disc. Within 5 days the eggs hatched. The freshly emerged larvae on the leaf discs were sprayed with solutions of test compound made up as in Example 156 above, at a rate equivalent to 340 liters per hectare (3.4×10^-5 m^3 /m^2).
The discs were thereafter kept under normal laboratory conditions (23° C.±2° C., fluctuating humidity and 16 hours day length). After 7 days assessment was made of the number of mites emerging as adults.
As to `O=C(NC(=O)c1c(F)cccc1F)Nc1ccc2c(c1)COC(c1ccc(Cl)cc1Cl)O2` (centres unmarked) [Example 82], the “LC50 (% active ingredient in spray)” value is 0.00023 % active ingredient in spray.

As to `O=C(NC(=O)c1c(F)cccc1F)Nc1ccc2c(c1)COC(c1c(Cl)cccc1Cl)O2` (centres unmarked) [Example 84], the “LC50 (% active ingredient in spray)” value is listed as 0.00036 % active ingredient in spray.

Consider `O=C(NC(=O)c1c(F)cccc1F)Nc1ccc2c(c1)COC(c1ccc(C(F)(F)F)cc1Cl)O2` (centres unmarked) [Example 85], for which the “LC50 (% active ingredient in spray)” value is 0.00031 % active ingredient in spray.

Consider `O=C(NC(=O)c1c(F)cccc1F)Nc1ccc2c(c1)COC(c1ccccc1Br)O2` (centres unmarked) [Example 87], for which the “LC50 (% active ingredient in spray)” value is 0.0029 % active ingredient in spray.

For `O=C(NC(=O)c1c(F)cccc1F)Nc1ccc2c(c1)COC(c1cccc(Cl)c1Cl)O2` (centres unmarked) [Example 92], the “LC50 (% active ingredient in spray)” value was 0.085 % active ingredient in spray.

As to `O=C(NC(=O)c1c(F)cccc1F)Nc1ccc2c(c1)COC(c1ccccc1C(F)(F)F)O2` (centres unmarked) [Example 93], the “LC50 (% active ingredient in spray)” value was 0.00022 % active ingredient in spray.

`O=C(NC(=O)c1c(F)cccc1F)Nc1ccc2c(c1)OC(c1ccc(C(F)(F)F)cc1)O2` (centres unmarked) [Example 134]: the “LC50 (% active ingredient in spray)” value is 0.09 % active ingredient in spray.

For the compound `O=C(NC(=O)c1c(F)cccc1F)Nc1ccc2c(c1)SC(c1ccc(Cl)cc1Cl)O2` (centres unmarked) [Example 142, N-[[[2-(2,4-dichlorophenyl)-1,3-benzoxathiol-5-yl]amino]carbonyl]-2,6-difluorobenzamide], the “LC50 (% active ingredient in spray)” value is recorded as 0.0015 % active ingredient in spray.

Take `O=C(NC(=O)c1c(F)cccc1F)Nc1ccc2c(c1)SC(c1ccc(Cl)c(Cl)c1)O2` (centres unmarked) [Example 145]: the “LC50 (% active ingredient in spray)” value was 0.053 % active ingredient in spray.

On to `O=C(NC(=O)c1c(F)cccc1F)Nc1ccc2c(c1)SC(c1ccc(F)cc1F)O2` (centres unmarked) [Example 147], for which the “LC50 (% active ingredient in spray)” value is 0.05 % active ingredient in spray.

The next assay concerns Trialeurodes vaporariorum. Put plainly: whole plant or invertebrate. The assay is classed as in vivo, Trialeurodes vaporariorum (greenhouse whitefly). The settings on record: 144 h, initial test concentration of 0.1% w (1000 ppm), 6 days, read-out: mortality grade T.v. How it is done:
as §1
Trialeurodes vaporariorum (greenhouse whitefly)
The test methods employed for each species appear below. In each test, unless otherwise stated, solutions or suspensions of test compound were made up over a range of concentrations in water (initially 0.1% w) containing 10%w acetone and 0.025% w "TRITON X-100" (trade mark) surface active agent (the condensation product of ethylene oxide with an alkyl phenol). These solutions were sprayed at a rate equivalent to 340 liters per hectare (3.4×10^-5 m^3 /m^2) onto Petri dishes containing either test species per se or diet onto which test species were subsequently introduced, as indicated. In some assays leaf discs infested with test species were sprayed whilst other assays involved the spraying of plants which were infested subsequently with test species after the spray solution had dried. The tests were all conducted under normal insectary conditions (23° C.±2° C., fluctuating humidity and light).
Mortality assessments were made as indicated below, in terms of percentage mortality figures. In each test a LC50 (the dosage of active material required to kill half of the test species) for the compound was calculated from the mortality figures and compared with the corresponding LC50 for a standard insecticide, ethyl parathion, in the same test. The results are expressed as toxicity indices thus: [formula] (i) Spodoptera littoralis (7 day)(Sl 7D) Test solutions were sprayed as indicated above onto Petri dishes containing a nutritious diet for Egyptian cotton leafworm larvae. When the spray deposit had dried, each dish was infested with ten 2nd instar larvae. Mortality assessments were made 7 days after spraying.
(iii) Trialeurodes vaporariorum (Tv)
French bean plants (Phaseolus vulgaris) with two fully expanded leaves were placed in a breeding culture of T.vaporariorum, also on French bean plants, which were then disturbed to ensure resettlement on the introduced plants. During the subsequent 24 hour period, eggs were deposited and kept at 27° C., with 14 hours photoperiod. All adult whiteflies were then carefully removed, leaving egg samples of a known age. After eight days the majority of eggs had hatched. Leaf discs containing the newly hatched nymphs were then cut from the leaves and transferred to moist filter paper. The discs were examined under a low-powered microscope to determine the exact number of 1st instar nymphs per disc and to remove any unhatched eggs. On average, 70-100 nymphs were found per disc. The discs were transferred into Petri dishes and sprayed with test solutions as described above. After 6 days percentage mortalities were assessed.
With `O=C(NC(=O)c1c(F)cccc1F)Nc1ccc2c(c1)COC(c1ccccc1Cl)O2` (centres unmarked) [Example 80], the mortality at 1000 µg/mL lay within 40 to 69%.

For `O=C(NC(=O)c1c(F)cccc1F)Nc1ccc2c(c1)COC(c1ccc(Cl)cc1)O2` (centres unmarked) [Example 81], the mortality at 1000 µg/mL was 40 to 69%.

As for `O=C(NC(=O)c1c(F)cccc1F)Nc1ccc2c(c1)COC(c1ccc(Cl)c(Cl)c1)O2` (centres unmarked) [Example 83], the mortality at 1000 µg/mL was in the range of 40 to 69%.

On to `O=C(NC(=O)c1c(F)cccc1F)Nc1ccc2c(c1)COC(c1c(Cl)cccc1Cl)O2` (centres unmarked) [Example 84], for which the mortality at 1000 µg/mL was in the range of 40 to 69%.

On to `O=C(NC(=O)c1c(F)cccc1F)Nc1ccc2c(c1)COC(c1ccccc1Br)O2` (centres unmarked) [Example 87], for which the mortality at 1000 µg/mL lay within 40 to 69%.

Turning to `O=C(NC(=O)c1c(F)cccc1F)Nc1ccc2c(c1)COC(c1ccc(C(F)(F)F)cc1)O2` (centres unmarked) [Example 88], the mortality at 1000 µg/mL lay within 40 to 69%.

As to `O=C(NC(=O)c1c(F)cccc1F)Nc1ccc2c(c1)COC(c1ccc(OC(F)(F)F)cc1)O2` (centres unmarked) [Example 91], the mortality at 1000 µg/mL is 40 to 69%.

Take `O=C(NC(=O)c1c(F)cccc1F)Nc1ccc2c(c1)CSC(c1ccccc1F)O2` (centres unmarked) [Example 96]: the mortality at 1000 µg/mL fell in the range of 40 to 69%.

With `O=C(NC(=O)c1c(F)cccc1F)Nc1ccc2c(c1)CSC(c1ccc(Cl)cc1Cl)O2` (centres unmarked) [Example 98], the mortality at 1000 µg/mL lay within 40 to 69%.

As to `O=C(NC(=O)c1c(F)cccc1F)Nc1ccc2c(c1)CSC(c1c(Cl)cccc1Cl)O2` (centres unmarked) [Example 99], the mortality at 1000 µg/mL was 40 to 69%.

Consider `O=C(NC(=O)c1c(F)cccc1F)Nc1ccc2c(c1)CSC(c1ccc(F)cc1F)O2` (centres unmarked) [Example 100], for which the mortality at 1000 µg/mL lay in the range of 40 to 69%.

Turning to `Cc1ccc(C2Oc3ccc(NC(=O)NC(=O)c4c(F)cccc4F)cc3CS2)cc1` (centres unmarked) [Example 102], the mortality at 1000 µg/mL is 40 to 69%.

Take `O=C(NC(=O)c1c(F)cccc1F)Nc1ccc2c(c1)CSC(c1ccccc1C(F)(F)F)O2` (centres unmarked) [Example 103]: the mortality at 1000 µg/mL was 40 to 69%.

Regarding `O=C(NC(=O)c1c(F)cccc1F)Nc1ccc2c(c1)CSC(c1ccccc1)O2` (centres unmarked) [Example 104], the mortality at 1000 µg/mL lay in the range of 40 to 69%.

For `O=C(NC(=O)c1c(F)cccc1F)Nc1ccc2c(c1)COC(c1ccccc1C(F)(F)F)S2` (centres unmarked) [Example 112], the mortality at 1000 µg/mL lay within 40 to 69%.

Consider `O=C(NC(=O)c1c(F)cccc1F)Nc1ccc2c(c1)COC(c1c(Cl)cccc1Cl)S2` (centres unmarked) [Example 113], for which the mortality at 1000 µg/mL lay within 40 to 69%.

With `O=C(NC(=O)c1c(F)cccc1F)Nc1ccc2c(c1)COC(c1ccccc1Br)S2` (centres unmarked) [Example 115], the mortality at 1000 µg/mL lay within 70 to 100%.

`Cc1ccccc1C1OCc2cc(NC(=O)NC(=O)c3c(F)cccc3F)ccc2S1` (centres unmarked) [Example 116]: the mortality at 1000 µg/mL fell in the range of 40 to 69%.

As to `O=C(NC(=O)c1c(F)cccc1F)Nc1ccc2c(c1)OC(c1ccccc1)O2` (centres unmarked) [Example 125], the mortality at 1000 µg/mL fell in the range of 40 to 69%.

For `O=C(NC(=O)c1c(F)cccc1F)Nc1ccc2c(c1)OC(c1ccccc1Cl)O2` (centres unmarked) [Example 126], the mortality at 1000 µg/mL was 40 to 69%.

Turning to `O=C(NC(=O)c1c(F)cccc1F)Nc1ccc2c(c1)OC(c1cccc(Cl)c1)O2` (centres unmarked) [Example 127], the mortality at 1000 µg/mL was in the range of 40 to 69%.

In the case of `O=C(NC(=O)c1c(F)cccc1F)Nc1ccc2c(c1)OC(c1ccc(Cl)cc1)O2` (centres unmarked) [Example 128], the mortality at 1000 µg/mL is 40 to 69%.

Consider `O=C(NC(=O)c1c(F)cccc1F)Nc1ccc2c(c1)OC(c1ccc(F)cc1F)O2` (centres unmarked) [Example 135], for which the mortality at 1000 µg/mL lay in the range of 40 to 69%.

Regarding `CCOC(=O)CC1(c2ccccc2)Oc2ccc(NC(=O)NC(=O)c3c(F)cccc3F)cc2O1` (centres unmarked) [Example 140], the mortality at 1000 µg/mL is 40 to 69%.

Take `O=C(NC(=O)c1c(F)cccc1F)Nc1ccc2c(c1)SC(c1ccccc1F)O2` (centres unmarked) [Example 143]: the mortality at 1000 µg/mL fell in the range of 40 to 69%.

For the compound `CC1(c2ccc(Cl)c(Cl)c2)Oc2ccc(NC(=O)NC(=O)c3c(F)cccc3F)cc2S1` (centres unmarked) [Example 152], the mortality at 1000 µg/mL lay in the range of 40 to 69%.

These data come from patent publication US5212171A, “Pesticidal heterocyclic compounds” (priority 1990, dated 1993).
